US5438053A, “Cephem compounds compositions and method” (Takeda Chemical Industries, Ltd., priority 1992, dated 1995)

Assays:
P. aeruginosa P9 = test: Minimal inhibitory concentration (MIC) by the agar dilution method, P. aeruginosa P9; type: cell-based; details: Pseudomonas aeruginosa, Mueller-Hinton agar, about 10^4 CFU/spot, 37° C. overnight
Protocol: (§1) Test Example 1 Minimal Inhibitory Concentrations (MIC)
(§2) The minimal inhibitory concentrations (MIC) of the test compounds were determined by the agar dilution method. More specifically, 0.25 ml each of aqueous solutions of the test compounds diluted by the serial dilution method was poured into petridishes. To each of these petridishes was poured 9.75 ml of Mueller-Hinton agar, followed by mixing. On each of these agar plates was a suspension of the test microorganism (about 10^4 CFU/spot). The lowest concentration of the test compounds inhibiting the growth of test microorganisms, after the incubation at 37° C. overnight, was taken as MIC.

P. aeruginosa NC-5 = test: Minimal inhibitory concentration (MIC) by the agar dilution method, P. aeruginosa NC-5; type: cell-based; details: Pseudomonas aeruginosa, NC5, Mueller-Hinton agar, about 10^4 CFU/spot, 37° C. overnight
Protocol: as §1, §2

Row | SMILES | MIC (P. aeruginosa P9) [µg/mL] | MIC (P. aeruginosa NC-5) [µg/mL]
1 | CC(C)(O/N=C(\C(=O)N[C@@H]1C(=O)N2C(C(=O)O)=C(CSc3nnnn3Cc3cc(=O)c(O)cn3O)CS[C@H]12)c1nsc(N)n1)C(=O)O [Ex. 26, Disodium 7β-[2-(5-amino-1,2,4-thiadiazol-3-yl)-(Z)-2-(1-carboxylato-1-methylethoxyimino)acetamido]-3-[[1-[(1,5-dihydroxy-4-pyridon-2-yl)methyl]-1H-tetrazol-5-yl]thiomethyl]-3-cephem-4-carboxylate] | 0.025 | 0.006
2 | CCO/N=C(\C(=O)N[C@@H]1C(=O)N2C(C(=O)O)=C(CSc3nnnn3Cc3cc(=O)c(O)cn3OC)CS[C@H]12)c1nsc(N)n1 [Ex. 12, Sodium 7β-[2-(5-amino-1,2,4-thiadiazol-3-yl)-(Z)-2-ethoxyiminoacetamido]-3-[[1-[(5-hydroxy-1-methoxy-4-pyridon-2-yl)methyl]-1H-tetrazol-5-yl]thiomethyl]-3-cephem-4-carboxylate] | 0.2 | 0.2
3 | CO/N=C(\C(=O)N[C@@H]1C(=O)N2C(C(=O)O)=C(CSc3snc(SCc4cc(=O)c(O)cn4O)c3C#N)CS[C@H]12)c1nsc(N)n1 [Ex. 3, Sodium 7β-[2-(5-amino-1,2,4-thiadiazol-3-yl)-(Z)-2-methoxyiminoacetamido]-3-[[4-cyano-3-[(1,5-dihydroxy-4-pyridon-2-yl)methylthio]isothiazol-5-yl]thiomethyl]-3-cephem-4-carboxylate] | 0.1 | 0.05
4 | CO/N=C(\C(=O)N[C@@H]1C(=O)N2C(C(=O)O)=C(CSc3nnnn3Cc3cc(=O)c(O)cn3OC)CS[C@H]12)c1nsc(N)n1 [Ex. 10, Sodium 7β-[2-(5-amino-1,2,4-thiadiazol-3-yl)-(Z)-2-methoxyiminoacetamido]-3-[[1-[(5-hydroxy-1-methoxy-4-pyridon-2-yl)methyl]-1H-tetrazol-5-yl]thiomethyl]-3-cephem-4-carboxylate] | 0.2 | 0.1
